Tested on: 349418-098-R-PDC complex spheroid growth
Assay: Anticancer human tumor 349418-098-R-PDC patient-derived lung adenocarcinoma cell line growth inhibition [AhR]
Settings: for IC50: curve of first compound; for viability, T/C: stronger effect = lower value
Method in brief: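 Spheroids combined tumor cells with HUVEC endothelial cells and human MSCs as stroma. AhR antagonists were paired with standard or investigational drugs, each dosed in half-log steps down from near clinical Cmax, or from 10 microM where Cmax was unknown.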
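Further: spheroids exposed to agents for seven days before luminescence viability read.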
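Wherever viability, T/C is given: spheroids also contain HUVEC endothelial cells and human MSC stroma.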

Which IC50 (second compound 0.1 µM) does the source give for CC(C)c1c(-c2ccccc2)nc2c(C#N)c[nH]n2c1=O + Cc1cncc(-c2nc(NCCc3c[nH]c4ccccc34)c3ncn(C(C)C)c3n2)c1 here?
Its IC50 is over 10 µM.

And the IC50 (second compound 0.316 µM)?
The IC50 was over 10 µM.

What about the IC50 (second compound 1 µM) of the same compound?
Its IC50 is over 10 µM.

What about the IC50 (second compound 3.16 µM) of the same compound?
The IC50 was under 0.0316 µM.

What about the IC50 (second compound 10 µM) of the same compound?
The IC50 was under 0.0316 µM.

What about the viability, T/C (second compound 0.1 µM, first compound 0.0316 µM) of the same compound?
Its viability, T/C is 102%.

And the viability, T/C (second compound 0.1 µM, first compound 0.1 µM)?
The viability, T/C was 94.6%.

What about the viability, T/C (second compound 0.1 µM, first compound 0.316 µM) of the same compound?
Its viability, T/C is 97.9%.

What about the viability, T/C (second compound 0.1 µM, first compound 1 µM) of the same compound?
Its viability, T/C is 97.2%.

What about the viability, T/C (second compound 0.1 µM, first compound 3.16 µM) of the same compound?
The viability, T/C was 97%.

What about the viability, T/C (second compound 0.1 µM, first compound 10 µM) of the same compound?
Its viability, T/C is 101%.

What about the viability, T/C (second compound 0.316 µM, first compound 0.0316 µM) of the same compound?
The viability, T/C was 96.8%.

What about the viability, T/C (second compound 0.316 µM, first compound 0.1 µM) of the same compound?
The viability, T/C was 82.4%.

And the viability, T/C (second compound 0.316 µM, first compound 0.316 µM)?
Its viability, T/C is 105%.

And the viability, T/C (second compound 0.316 µM, first compound 1 µM)?
Its viability, T/C is 93.2%.

What about the viability, T/C (second compound 0.316 µM, first compound 3.16 µM) of the same compound?
The viability, T/C was 83.3%.

And the viability, T/C (second compound 0.316 µM, first compound 10 µM)?
The viability, T/C was 95.2%.

What about the viability, T/C (second compound 1 µM, first compound 0.0316 µM) of the same compound?
Its viability, T/C is 94.1%.

And the viability, T/C (second compound 1 µM, first compound 0.1 µM)?
Its viability, T/C is 87%.

What about the viability, T/C (second compound 1 µM, first compound 0.316 µM) of the same compound?
The viability, T/C was 83.6%.

And the viability, T/C (second compound 1 µM, first compound 1 µM)?
The viability, T/C was 85.9%.

What about the viability, T/C (second compound 1 µM, first compound 3.16 µM) of the same compound?
Its viability, T/C is 78.6%.

And the viability, T/C (second compound 1 µM, first compound 10 µM)?
Its viability, T/C is 83.7%.

And the viability, T/C (second compound 3.16 µM, first compound 0.0316 µM)?
Its viability, T/C is 15.8%.

And the viability, T/C (second compound 3.16 µM, first compound 0.1 µM)?
The viability, T/C was 16.5%.

And the viability, T/C (second compound 3.16 µM, first compound 0.316 µM)?
The viability, T/C was 17.4%.

And the viability, T/C (second compound 3.16 µM, first compound 1 µM)?
Its viability, T/C is 12.2%.

What about the viability, T/C (second compound 3.16 µM, first compound 3.16 µM) of the same compound?
The viability, T/C was 11.3%.

And the viability, T/C (second compound 3.16 µM, first compound 10 µM)?
The viability, T/C was 12.6%.

And the viability, T/C (second compound 10 µM, first compound 0.0316 µM)?
Its viability, T/C is 0.96%.

And the viability, T/C (second compound 10 µM, first compound 0.1 µM)?
The viability, T/C was 1.33%.

And the viability, T/C (second compound 10 µM, first compound 0.316 µM)?
Its viability, T/C is 1.19%.

And the viability, T/C (second compound 10 µM, first compound 1 µM)?
The viability, T/C was 0.58%.

What about the viability, T/C (second compound 10 µM, first compound 3.16 µM) of the same compound?
Its viability, T/C is 0.81%.

What about the viability, T/C (second compound 10 µM, first compound 10 µM) of the same compound?
The viability, T/C was 1.09%.

Reference: PubChem BioAssay AID1918996 (Molecular Pharmacology Branch, DTP, NCI, 2023)
